Experimental findings from publication PMC4700278, “Molecular and Biochemical Analysis of the Estrogenic and Proliferative Properties of Vitamin E Compounds” (Frontiers in Oncology, 2016) are described below.

Molecules are shown by their SMILES.

In assay [1] the test system is PR. Kind of assay: Quantitative RT-PCR of endogenous E2-regulated gene in MCF-7 cells. To be noted: 500 μM, 16 h. Format: cell-based, human. How it is done:
(§1) Figure 3 Measurement of estrogenicity of tocols in vitro. (A) Dose–response curve of the effect of tocols on MCF-7 cells stably transfected with the ERE-β-globin-tk-Luc plasmid (MELN cells). […] Data shown are the mean values ± SEM from three independent experiments. (C) δ-TP or δ-TT stabilized ER-α in MCF-7 cells. […] MCF-7 extracts were analyzed for the presence of ERα by western blotting using GAPDH as a control. […] The western blot shown is representative of three independent experiments. […] (D) Effect of δ-tocols on estrogen response element-dependent luciferase activity in HELN cells, which are HELA cells transfected with either fully functional ERα or ERβ or their mutated versions containing a deletion the AB domain (ΔAB). […] Data shown are the mean values ± SEM from three independent experiments. (E) δ-Tocols modulate the induction of endogenous genes under the control of ER. […] Cells were treated with 500 μM δ-tocols in the presence or in the absence of ICI. The relative expression of TGFα, PR, and Ps2 (TFF1) after 16 h was analyzed by quantitative RT-PCR. Data shown are the mean values ± SEM from three independent experiments.

For assay [2], the system named is Ps2 (TFF1). Described as above. It is filed as cell-based, human. As to conditions: 500 μM, 16 h. How it is done:
as §1

Assay [3] concerns TGFα. The description is as above. It is filed as cell-based, human. To be noted: 500 μM, 16 h. How it is done:
as §1

For assay [4], the target named is T1, ERβ (Homo sapiens, UniProt Q92731). Nature of the assay: Estrogen receptor-binding assay, competition with [3H]-17β-estradiol. On the set-up: expressed in transfected cells; host or cells: Cos-7. To be noted: extracts of cos-7 cells expressing human ERβ; 2 nM [3H]-E2; tocols 1 μM to 1 mM; N.M. = not measurable.
T1 sequence (Q92731 whole entry): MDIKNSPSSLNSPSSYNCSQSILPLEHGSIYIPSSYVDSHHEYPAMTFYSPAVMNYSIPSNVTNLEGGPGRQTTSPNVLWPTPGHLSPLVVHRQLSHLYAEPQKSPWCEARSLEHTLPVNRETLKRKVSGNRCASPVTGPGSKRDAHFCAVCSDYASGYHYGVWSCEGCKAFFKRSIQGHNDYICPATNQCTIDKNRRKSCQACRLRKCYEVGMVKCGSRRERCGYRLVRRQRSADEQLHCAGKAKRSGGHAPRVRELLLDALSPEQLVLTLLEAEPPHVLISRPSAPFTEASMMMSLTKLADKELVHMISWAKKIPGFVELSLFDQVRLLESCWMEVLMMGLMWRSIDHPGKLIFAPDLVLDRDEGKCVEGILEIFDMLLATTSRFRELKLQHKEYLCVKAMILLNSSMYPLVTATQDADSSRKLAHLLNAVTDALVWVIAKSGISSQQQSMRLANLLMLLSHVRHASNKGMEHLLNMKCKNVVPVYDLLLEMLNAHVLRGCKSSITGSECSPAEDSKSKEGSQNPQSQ
The target in assay [5] is T1, ERβ. To be noted: HELN-ERβ cells; 500 μM. From the text:
MELN cells were established by transfecting ER(+) MCF-7 cells with the ERE-β-globin-tk-Luc-SV-Neo plasmid ([36]). HELN cells were generated by transfection of ER(−) HeLa cells with this plasmid. The HELN-ERα, HELN-ERβ, HELN-ΔAB-ERα, and HELN-ΔAB-ERβ cell lines then underwent a second transfection with the corresponding pSG5-puro plasmids (pSG5-ERα-puro, pSG5-ERβ-puro, pSG5-ΔAB-ERα-puro, and pSG5-ΔAB-ERβ-puro, respectively) and expressed wild-type or mutated ERα or ERβ ([39], [40]). […] Luciferase activity was measured using the luciferase assay reagent (Promega), according to the manufacturer’s instructions. Protein concentrations were measured using the Bradford technique ([41]) to normalize the luciferase activity data. For each condition, average luciferase activity was calculated from the data of three independent wells.
Figure 3 Measurement of estrogenicity of tocols in vitro. […] MCF-7 extracts were analyzed for the presence of ERα by western blotting using GAPDH as a control. […] The ratio of ERα to GAPDH levels in each experiment was determined densitometrically and normalized to control value (taken to be 1). […] The relative expression of TGFα, PR, and Ps2 (TFF1) after 16 h was analyzed by quantitative RT-PCR. […]

Regarding `CC(C)=CCC/C(C)=C/CC/C(C)=C/CC[C@]1(C)CCc2cc(O)cc(C)c2O1` [δ-TT, δ-tocotrienol], the “transcription of PR (fold increase)” value in assay [1] came out at 1.6 fold. For the same molecule, the “transcription of Ps2 (fold increase)” value in assay [2] was “twofold”. For the same molecule, the “transcription of TGFα (fold increase)” value in assay [3] amounted to 1.1 fold. Also, the 50% inhibitory concentration (IC50) (in general, the point on the concentration scale where inhibition reaches its midpoint) in assay [4] came out at 91 ± 7 µM. Also, in assay [5], the “ER-dependent luciferase activity through ERβ” value is “activate ER-dependent luciferase activity”.
